Here are results for twelve compounds from US4479941A, “Renin inhibitory peptides having PHE^13 delection” (Merck & Co., Inc., priority 1982, dated 1984).

For orientation: Ki means the dissociation constant of the complex between target and ligand, obtained from inhibition or displacement.

One assay deals with hog kidney renin (Sus scrofa, UniProt A0A287APG1). Kind of assay: Hog renin inhibition. It counts as biochemical. The settings on record: pH 7.3, read-out: I50 (concentration of peptide inhibitor necessary to produce 50% inhibition of renin activity). The method, then:
An assay was carried out in order to determine the inhibitory potency of the peptides of the present invention.

The target of the next assay is T1, human kidney renin (Homo sapiens, UniProt P00797).
T1 construct: human kidney renin purified as described in Bangham; from tissue; host or cells: human kidney
T1 sequence (P00797 67-406): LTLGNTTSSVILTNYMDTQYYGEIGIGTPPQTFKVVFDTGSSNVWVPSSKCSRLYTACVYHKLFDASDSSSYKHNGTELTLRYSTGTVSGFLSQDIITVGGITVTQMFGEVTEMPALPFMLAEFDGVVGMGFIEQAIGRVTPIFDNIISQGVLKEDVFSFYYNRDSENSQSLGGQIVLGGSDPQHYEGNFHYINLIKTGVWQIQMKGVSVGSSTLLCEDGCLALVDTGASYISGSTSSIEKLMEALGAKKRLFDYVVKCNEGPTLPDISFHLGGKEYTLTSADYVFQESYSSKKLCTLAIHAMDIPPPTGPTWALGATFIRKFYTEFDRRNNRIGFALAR
Put plainly: Human renin inhibition. The settings on record: purified human kidney renin; read-out: KI (dissociation constant of the inhibited enzyme-inhibitor complex). It counts as biochemical. The method, then:
An assay was carried out in order to determine the inhibitory potency of the peptides of the present invention. The assay measured the inhibition of human kidney renin purified as described in Bangham, D. R., Robertson, I., Robinson, J. I. S., Robinson, C. J., and Tree, M., Clinical Science and Molecular Medicine, 48 (Supp. 2): 136s-159s (1975), and further purified by affinity chromatography on pepstatin-aminohexyl-Sepharase as described in Poe, M., Wu., J. K., Florance, J. R., Radkey, J. A., Bennett, C. D., and Hoagsteen, K., J. Biol. Chem. (1982, in press). The assay was also in accordance with Poe et al. cited above. Results are expressed as KI values, which refer to the dissociation constant of the inhibited enzyme-inhibitor complex. This KI value was obtained as described above.

Assay [1] concerns aspartyl proteases such as pepsin, cathepsin D, and renin. The settings on record: other acid proteases; cited from earlier work.
In a further assay the test system is hog renin. The settings on record: after injection of hog renin into nephrectomized rats (Gross et al. 1971); cited from earlier work.

Square brackets hold non-standard residues; d marks the D form. Peptide text beside a SMILES is read from it. * marks the point of attachment. Sta = CC(C)C[C@H](N)[C@@H](O)CC(=O)O; X2 = c1ccc(CC(N*)c2ccccc2)cc1; NH(CH2)3Ph = c1ccc(CCCN*)cc1; NHPhenethyl = c1ccc(CCN*)cc1; X5 = c1ccc(CN2CCC(N*)CC2)cc1; Isobutyryl = CC(C)C(=O)*; Boc = CC(C)(C)OC(=O)*; NHBn = c1ccc(CN*)cc1; X3 = OCCN(CCO)CCCN*

hog kidney renin, sequence (A0A287APG1 67-407): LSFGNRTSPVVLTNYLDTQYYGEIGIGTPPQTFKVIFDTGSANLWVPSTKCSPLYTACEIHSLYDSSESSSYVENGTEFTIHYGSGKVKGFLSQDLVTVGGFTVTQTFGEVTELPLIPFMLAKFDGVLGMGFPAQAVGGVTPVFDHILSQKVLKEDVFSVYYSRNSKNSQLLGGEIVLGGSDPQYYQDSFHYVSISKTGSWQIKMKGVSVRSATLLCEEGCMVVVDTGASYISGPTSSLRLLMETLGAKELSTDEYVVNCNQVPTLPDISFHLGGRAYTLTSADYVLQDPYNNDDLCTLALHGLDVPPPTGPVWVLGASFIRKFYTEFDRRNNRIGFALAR

With `CC(C)C[C@H](NC(=O)C[C@H](O)[C@H](CC(C)C)NC(=O)[C@H](Cc1c[nH]cn1)NC(=O)[C@H](Cc1ccccc1)NC(=O)OC(C)(C)C)C(=O)NC(C)c1cccc2ccccc12` (single isomer, unassigned) [BOC--Phe-His-Sta-Leu-(+)-α-naphthylethylamide], the IC50 at hog kidney renin worked out at 11 nM. Still for that read-out and setting: then `CC(=O)N[C@@H](Cc1ccccc1)C(=O)N[C@@H](Cc1c[nH]cn1)C(=O)N[C@@H](Cc1ccccc1)[C@@H](O)CC(=O)N[C@@H](CC(C)C)C(=O)NCc1ccccc1` [Acetyl--Phe-His-AHPPA-Leu-benzylamide], with 3.4 nM.

On to `CC(C)C[C@H](NC(=O)C[C@H](O)[C@H](Cc1ccccc1)NC(=O)[C@H](Cc1c[nH]cn1)NC(=O)[C@H](Cc1ccccc1)NC(=O)OC(C)(C)C)C(=O)NCc1ccccc1` [BOC--Phe--His--AHPPA--Leu--benzylamide, BOC--Phe-His-AHPPA^4 -Lleu-benzylamide], for which, on hog kidney renin, the IC50 was 1.4 nM. As for `CC(C)C[C@H](NC(=O)C[C@H](O)[C@H](CC(C)C)NC(=O)[C@H](Cc1c[nH]cn1)NC(=O)[C@H](Cc1ccccc1)NC(=O)OC(C)(C)C)C(=O)N[C@@H](CC(C)C)[C@@H](O)CC(=O)O` [BOC--Phe--His--Sta--Leu--Sta, BOC--Phe-His-Sta-Leu-Sta] (Boc-FH[Sta]L[Sta]-OH), the IC50 at hog kidney renin was determined as 36 nM. The same measure, in the same setting: then `CC(C)C[C@H](NC(=O)C[C@H](O)[C@H](CC(C)C)NC(=O)[C@H](Cc1c[nH]cn1)NC(=O)[C@H](Cc1ccccc1)NC(=O)OC(C)(C)C)C(=O)NCc1ccccc1` [BOC--Phe--His--Sta--Leu--benzylamide, BOC--Phe-His-Sta-Leu-benzylamide] (Boc-FH[Sta]L-NHBn), with 11 nM. Turning to `CC(C)C[C@H](NC(=O)C[C@H](O)[C@H](CC(C)C)NC(=O)[C@H](Cc1c[nH]cn1)NC(=O)[C@H](Cc1ccccc1)NC(=O)OC(C)(C)C)C(=O)NC1CCN(Cc2ccccc2)CC1` [BOC--Phe-His-Sta-Leu-(4-amido-1-benzylpiperidine)] (Boc-FH[Sta]L-X5), at human kidney renin, the Ki came out at 0.06 nM. Still for that read-out and setting: then `CC(C)C[C@H](NC(=O)C[C@H](O)[C@H](CC(C)C)NC(=O)[C@H](Cc1c[nH]cn1)NC(=O)[C@H](Cc1ccccc1)NC(=O)OC(C)(C)C)C(=O)NCCCN(CCO)CCO` [BOC--Phe-His-Sta-Leu-[N-(3-amidopropyl)diethanolamine]] (Boc-FH[Sta]L-X3), with 52 nM.

For the compound `CC(C)C[C@H](NC(=O)C[C@H](O)[C@H](CC(C)C)NC(=O)[C@H](Cc1c[nH]cn1)NC(=O)[C@H](Cc1ccccc1)NC(=O)[C@@H]1CCCN1C(=O)[C@H](Cc1c[nH]cn1)NC(=O)C(C)C)C(=O)NC(Cc1ccccc1)c1ccccc1` (stereo partly drawn) [IBU--His-Pro-Phe-His-Sta-Leu-1,2-diphenylethylamide] (Isobutyryl-HPFH[Sta]L-X2), the IC50 on hog kidney renin worked out at 5.6 nM.

Take `CC(C)C[C@H](NC(=O)C[C@H](O)[C@H](CC(C)C)NC(=O)[C@H](Cc1c[nH]cn1)NC(=O)[C@H](Cc1ccccc1)NC(=O)[C@@H]1CCCN1C(=O)[C@H](Cc1c[nH]cn1)NC(=O)C(C)C)C(=O)NCCc1ccccc1` [IBU--His-Pro-Phe-His-Sta-Leu-2-phenylethylamide] (Isobutyryl-HPFH[Sta]L-NHPhenethyl): at hog kidney renin, the IC50 came to 30 nM.

Consider `CC(C)C[C@H](NC(=O)C[C@H](O)[C@H](CC(C)C)NC(=O)[C@H](Cc1c[nH]cn1)NC(=O)[C@H](Cc1ccccc1)NC(=O)[C@@H]1CCCN1C(=O)[C@H](Cc1c[nH]cn1)NC(=O)C(C)C)C(=O)NCCCc1ccccc1` [IBU--His-Pro-Phe-His-Sta-Leu-3-phenylpropylamide] (Isobutyryl-HPFH[Sta]L-{NH(CH2)3Ph}), for which the IC50 on hog kidney renin was determined as 19 nM.

Take `CC(C)C[C@H](NC(=O)C[C@H](O)[C@H](CC(C)C)NC(=O)[C@H](Cc1c[nH]cn1)NC(=O)[C@H](Cc1ccccc1)NC(=O)[C@@H]1CCCN1C(=O)[C@H](Cc1c[nH]cn1)NC(=O)C(C)C)C(=O)NCc1ccccc1` [N-Isobutyryl-L-histidyl-L-prolyl-L-phenylalanyl-L-histidyl-(3S,4S)-statyl-L-leucyl-benzylamide] (Isobutyryl-HPFH[Sta]L-NHBn): on hog kidney renin, the IC50 was 13 nM. Also, on human kidney renin, the Ki amounted to 12 nM. For pepstatin, the “inhibition of aspartyl proteases (selectivity)” value in assay [1] was “inhibition of a variety of other acid proteases in addition to renin”. Moreover, in the assay with hog renin, the “reduction of blood pressure in vivo” value is “reduce blood pressure in vivo”.
